According to patent US4540689A, “Penicillin derivative” (Kureha Kagaku Kogyo Kabushiki Kaisha, priority 1981, dated 1985):
Values after ≈ are worked out from the molar mass of the structure shown.

Legend:
Escherichia coli = experiment: Effect on intestinal bacterial colonies, E. coli count in feces; format: in vivo; details: female ICR mice, oral 500 mg/kg/day for two days, first day after administration; before administration 6.4
Experimental: (§1) Effect of the present compounds on the intestinal bacterial colonies was examined.
(§2) Each of the present compounds was orally administered to mice (one group consisting of five female ICR mice of 6-week-old) for two consecutive days at a dose of 500 mg/kg/day.
(§3) Before and on the first day after the administration, feces of each mouse was collected and diluted with an anerobic diluent (phosphoric buffer solution) of 100 times volume and ground. 0.1 ml of the diluted and ground feces was smeared on each culture medium shown in Table 1 and cultured aerobically or anaerobically (according to the anaerobic glove box method) under each condition shown in Table 1.
DHL agar aerobic, 37° C., one day

Pseudomonas aeruginosa = experiment: Effect on intestinal bacterial colonies, Ps. aeruginosa count in feces; format: in vivo; details: female ICR mice, oral 500 mg/kg/day for two days, first day after administration; before administration <3.0
Experimental: as §1, §2, §3
NAC agar aerobic, 37° C., one day

Streptococcus spp. = experiment: Effect on intestinal bacterial colonies, Streptococcus count in feces; format: in vivo; details: female ICR mice, oral 500 mg/kg/day for two days, first day after administration; before administration 6.8
Experimental: as §1, §2, §3
TATAC agar aerobic, 37° C., one day

[1] = tested on: Lactobacillus acidophilus; experiment: Effect on intestinal bacterial colonies, L. acidophilus count in feces; format: in vivo; details: female ICR mice, oral 500 mg/kg/day for two days, first day after administration; before administration 9.0
Experimental: as §1, §2, §3
Lactobacillus acidophilus
LBS agar anaerobic, 37° C., five

Lactobacillus bifidus = experiment: Effect on intestinal bacterial colonies, L. bifidus count in feces; format: in vivo; details: female ICR mice, oral 500 mg/kg/day for two days, first day after administration; before administration 8.4
Experimental: as §1, §2, §3
BS agar anaerobic, 37° C., five

Bacteroides = experiment: Effect on intestinal bacterial colonies, Bacteroides count in feces; format: in vivo; details: female ICR mice, oral 500 mg/kg/day for two days, first day after administration; before administration 8.3
Experimental: as §1, §2, §3
Bacteroides NBGT agar anaerobic, 37° C., five

[2] = tested on: Escherichia coli IFO 12734; experiment: Antibacterial activity (MIC), agar plate, E. coli; format: cell-based; details: E. coli IFO 12734, Mueller-Hinton agar, 37° C., 18 to 24 hours; unit assumed
Experimental: (§4) Antibacterial activity of the present compounds was examined as follows.
(§5) Antibacterial activity of each of the present compounds was examined against the following two bacteria according to the standard method of Japan Society of Chemotherapy:
Escherichia coli IFO 12734 and
(§6) Each bacterial strain was inoculated into the Mueller-Hinton's culture medium and cultured at 37° C. for 18 to 48 hours. The culture medium was diluted so as to contain 1×10^6 cells of the bacteria per one ml, and the obtained medium was used as the bacterial specimen.
(§7) Agar plates were prepared by adding one part by weight of each solution of the present compounds having a predetermined concentration to nine parts by weight of Mueller-Hinton's culture medium.
(§8) A loopful amount of the bacterial specimen prepared above was smeared to make a streak of about 2 cm on each agar plate and cultured at 37° C. for 18 to 24 hours. The minimum concentration for completely inhibiting proliferation of the bacteria (referred as MIC) was determined.

[3] = tested on: Staphylococcus aureus IAM 1011; experiment: Antibacterial activity (MIC), agar plate, Staph. aureus; format: cell-based; details: Staph. aureus IAM 1011, Mueller-Hinton agar, 37° C., 18 to 24 hours; unit assumed
Experimental: as §4, §5
Staphylococcus aureus IAM 1011
as §6, §7, §8

[4] = tested on: Staphylococcus aureus IAM 1011; experiment: Activation by rat liver homogenate (S-9 mix), penicillin cup proliferation-inhibiting circle; format: cell-based; details: compound solution 100 μg/ml, ratio of circle diameter to conventional penicillin antibiotic; for Proliferation-inhibiting index (%), after adding S-9 mix: incubated with S-9 mix 37° C., 20 min; for Proliferation-inhibiting index (%), before adding S-9 mix: phosphoric buffer control without S-9
Experimental: As an enzyme for activating metabolism, a rat liver homogenate (S-9, manufactured by Oriental Yeast Company, Japan) was used in the following composition per one ml (hereinafter referred to as S-9 mix).
0.1 ml of each solution of the present compounds at a concentration of 100 μg/ml was mixed with 0.9 ml of S-9 mix or 0.9 ml of 0.1M phosphoric buffer solution (as a control) and the obtained mixture was incubated at 37° C. for 20 min with shaking.
Staphylococcus aureus IAM 1011 was inoculated into a Mueller-Hinton's culture medium and cultured at 37° C. for 18 hours. The culture medium was adjusted to a cell concentration of 1×10^8 per one ml and mixed with 50 times by volume of Mueller-Hinton's agar culture medium to obtain an agar plate.
A penicillin cup of 8 mm in diameter was placed on the agar plate prepared above, and into the cup 0.1 ml of the mixture was introduced and allowed to stand at 4° C. for 2 hours and then cultured at 37° C. for 18 hours to measure the diameter of a circle in which the proliferation of bacteria was inhibited (proliferation-inhibiting circle). In Table 4, the proliferation-inhibitingindex is shown with the ratio (%) of the diameter of the proliferation-inhibiting circle obtained by using each of the present compounds to that obtained by using the comparative compound (conventionalpenicillin antibiotic).

Row | Compound | MIC, E. coli [2] [µg/mL] | MIC, Staph. aureus [3] [µg/mL] | Logarithmic value of the number of bacterial cells per one gram of feces, E. coli (Escherichia coli) | Logarithmic value of the number of bacterial cells per one gram of feces, Ps. aeruginosa (Pseudomonas aeruginosa) | Logarithmic value of the number of bacterial cells per one gram of feces, Strept. spp. (Streptococcus spp.) | Logarithmic value of the number of bacterial cells per one gram of feces, L. acidophilus [1] | Logarithmic value of the number of bacterial cells per one gram of feces, L. bifidus (Lactobacillus bifidus) | Logarithmic value of the number of bacterial cells per one gram of feces, Bacteroides (Bacteroides) | Proliferation-inhibiting index (%), after adding S-9 mix [4] | Proliferation-inhibiting index (%), before adding S-9 mix [4]
1 | CC(=O)OC[C@H]1OC(OC(=O)[C@@H]2N3C(=O)[C@@H](NC(=O)COc4ccccc4)[C@H]3SC2(C)C)[C@H](OC(C)=O)[C@@H](OC(C)=O)[C@@H]1OC(C)=O (stereo partly drawn) [Example 1] | ≥ 200 | 0.39 (≈ 0.573 µM) | 7.2 logarithmic value; cells per o | < 3.0 logarithmic value; cells per o | 6.8 logarithmic value; cells per o | 9.1 logarithmic value; cells per o | 8.6 logarithmic value; cells per o | 8.5 logarithmic value; cells per o | ± (0-1) | - (0)
2 | CC1(C)S[C@@H]2[C@H](NC(=O)C(N=Cc3cc([N+](=O)[O-])ccc3O)c3ccccc3)C(=O)N2[C@H]1C(=O)O (stereo partly drawn) [Example 3] | 12.5 (≈ 25.1 µM) | 0.78 (≈ 1.56 µM) | 6.5 logarithmic value; cells per o | < 3.0 logarithmic value; cells per o | 6.8 logarithmic value; cells per o | 9.1 logarithmic value; cells per o | 8.4 logarithmic value; cells per o | 8.2 logarithmic value; cells per o | +++ (66-100) | ++ (33-66)
3 | CC(=O)Nc1ccc(C(=O)N[C@@H](C(=O)N[C@@H]2C(=O)N3[C@@H]2SC(C)(C)[C@@H]3C(=O)O)c2ccccc2)cc1 [Example 7, 7-[N-(p-acetylaminobenzoicamido)-D-phenylglycineamido]penicillanic acid] | ≥ 100 | ≥ 12.5 | 6.5 logarithmic value; cells per o | < 3.0 logarithmic value; cells per o | 6.4 logarithmic value; cells per o | 9.0 logarithmic value; cells per o | 8.2 logarithmic value; cells per o | 8.0 logarithmic value; cells per o | – | –
4 | CC(=O)Nc1ccc(C(=O)NCC(=O)N[C@@H](C(=O)N[C@@H]2C(=O)N3[C@@H]2SC(C)(C)[C@@H]3C(=O)O)c2ccccc2)cc1 [Example 8, 7-[N-(p-acetylaminohippuric acid amido)-O-phenylglycineamido]penicillanic acid] | ≥ 100 | ≥ 12.5 | 6.4 logarithmic value; cells per o | < 3.0 logarithmic value; cells per o | 6.7 logarithmic value; cells per o | 9.2 logarithmic value; cells per o | 8.5 logarithmic value; cells per o | 8.1 logarithmic value; cells per o | – | –
5 | CCOCOC(=O)[C@@H]1N2C(=O)[C@@H](NC(=O)COc3ccccc3)[C@H]2SC1(C)C [Example 10] | ≥ 25 | 12.5 (≈ 30.6 µM) | 6.4 logarithmic value; cells per o | < 3.0 logarithmic value; cells per o | 6.6 logarithmic value; cells per o | 9.0 logarithmic value; cells per o | 8.4 logarithmic value; cells per o | 8.2 logarithmic value; cells per o | – | –

Second part, led by results:

Row | MIC, E. coli [2] [µg/mL] | MIC, Staph. aureus [3] [µg/mL] | Compound | Logarithmic value of the number of bacterial cells per one gram of feces, E. coli (Escherichia coli) | Logarithmic value of the number of bacterial cells per one gram of feces, Ps. aeruginosa (Pseudomonas aeruginosa) | Logarithmic value of the number of bacterial cells per one gram of feces, Strept. spp. (Streptococcus spp.) | Logarithmic value of the number of bacterial cells per one gram of feces, L. acidophilus [1] | Logarithmic value of the number of bacterial cells per one gram of feces, L. bifidus (Lactobacillus bifidus) | Logarithmic value of the number of bacterial cells per one gram of feces, Bacteroides (Bacteroides) | Proliferation-inhibiting index (%), after adding S-9 mix [4] | Proliferation-inhibiting index (%), before adding S-9 mix [4]
6 | 6.25 | 0.1 | COc1cccc(C=NC(C(=O)N[C@@H]2C(=O)N3[C@@H]2SC(C)(C)[C@@H]3C(=O)O)c2ccccc2)c1O (stereo partly drawn) [Example 2, sodium 6-(3-methoxysalicylaldehydeiminophenyl-glycino)penicillanate] | 6.4 logarithmic value; cells per o | < 3.0 logarithmic value; cells per o | 6.5 logarithmic value; cells per o | 8.8 logarithmic value; cells per o | 8.3 logarithmic value; cells per o | 8.3 logarithmic value; cells per o | +++ (66-100) | ++ (33-66)
7 | 12.5 | 0.78 | CC1(C)S[C@@H]2[C@H](NC(=O)C(N=Cc3ccccc3O)c3ccccc3)C(=O)N2[C@H]1C(=O)O (stereo partly drawn) [Example 4, sodium 6-(salicylaldehydeiminophenylglycino)penicillanate] | 6.4 logarithmic value; cells per o | < 3.0 logarithmic value; cells per o | 6.5 logarithmic value; cells per o | 8.8 logarithmic value; cells per o | 8.8 logarithmic value; cells per o | 8.2 logarithmic value; cells per o | +++ (66-100) | ++ (33-66)
8 | 6.25 | 0.1 | CC1(C)S[C@@H]2[C@H](NC(=O)C(N=Cc3cc(Cl)ccc3O)c3ccccc3)C(=O)N2[C@H]1C(=O)O (stereo partly drawn) [Example 5, sodium 6-(5-chlorosalicylaldehydeiminophenylglycino)penicillanate] | 6.5 logarithmic value; cells per o | 3.3 logarithmic value; cells per o | 6.6 logarithmic value; cells per o | 8.8 logarithmic value; cells per o | 8.7 logarithmic value; cells per o | 8.0 logarithmic value; cells per o | +++ (66-100) | ++ (33-66)
9 | ≥ 100 | ≥ 12.5 | Cc1ncc(CO)c(C=NC(C(=O)N[C@@H]2C(=O)N3[C@@H]2SC(C)(C)[C@@H]3C(=O)O)c2ccccc2)c1O (stereo partly drawn) [Example 6] | – | – | – | – | – | – | +++ (66-100) | ++ (33-66)
